Earlier results as cited in US20030203043A1 (priority 2002, published 2003).
Like-named read-outs stand apart in the source and are kept apart here.

What was measured:
[1] = supplementation
[2] = female rats
[3] = not given; remark: listed apart in the source
[4] = hypogonadal men; for waking erection: Asian group; for sexual interest and activity, spontaneous erection: Caucasian group
[5] = 300 mg/wk, six weeks; TE shoulders; ND shoulders and chest
[6] = in vivo
[7] = compared with placebo
[8] = in vivo; remark: listed apart in the source
aromatase = biological target: T1, aromatase (Homo sapiens, UniProt P11511); details: relative to chrysin, AG, ANG
T1 sequence (P11511 1-503): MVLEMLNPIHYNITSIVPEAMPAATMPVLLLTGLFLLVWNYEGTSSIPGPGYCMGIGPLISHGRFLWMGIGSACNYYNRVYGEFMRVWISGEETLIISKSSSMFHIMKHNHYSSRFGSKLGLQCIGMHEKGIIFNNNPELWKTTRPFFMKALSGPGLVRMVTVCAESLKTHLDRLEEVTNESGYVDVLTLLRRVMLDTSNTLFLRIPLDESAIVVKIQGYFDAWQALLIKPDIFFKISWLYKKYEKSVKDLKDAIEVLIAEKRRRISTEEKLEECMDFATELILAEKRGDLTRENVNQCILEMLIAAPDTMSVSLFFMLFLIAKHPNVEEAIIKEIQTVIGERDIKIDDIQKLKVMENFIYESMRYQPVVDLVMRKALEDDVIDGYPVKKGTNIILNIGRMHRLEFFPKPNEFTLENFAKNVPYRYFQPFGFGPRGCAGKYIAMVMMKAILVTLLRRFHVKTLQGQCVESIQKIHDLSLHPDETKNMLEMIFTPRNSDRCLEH

[9] = pharmacological doses
[10] = levator ani muscles
[11] = prostate and seminal vesicle weights

Structure (SMILES): C[C@]12CC[C@H](O)CC1=CC[C@@H]1[C@@H]2CC[C@]2(C)C(=O)CC[C@@H]12 [DHEA, dehydro-epiandrosterone]
- plasma testosterone (50 mg dose): levels similar to those observed in young women
- delta 5-androstenediol plasma level (50 mg or 200 mg DHEA): small increase
- increase of plasma delta 4-androstenedione (50 mg or 200 mg DHEA): significant and dose dependent
- plasma estrogens, particularly estradiol (50 mg or 200 mg DHEA): significant and dose dependent increase
- plasma testosterone (200 mg dose): slightly below the levels observed in normal men
- increase of plasma dihydrotestosterone levels (both doses): small

Structure (SMILES): C[C@]12CCC(=O)C=C1CC[C@@H]1[C@@H]2CC[C@]2(C)C(=O)CC[C@@H]12 [4-androstenedione]
- serum testosterone [1]: elevations in serum testosterone

Structure (SMILES): C[C@]12CC[C@H]3[C@@H](CC=C4C[C@@H](O)CC[C@@]43C)[C@@H]1CC[C@@H]2O [5-androstenediol]
- lipid deposition or heat production [2]: did not have a significant effect
- proportion of protein in the body composition [2]: increased the proportion of protein

Structure (SMILES): C[C@]12CC[C@H]3[C@@H](CCC4=C[C@@H](O)CC[C@@]43C)[C@@H]1CC[C@@H]2O [4-androstenediol]
- urine testosterone concentration relative to 4-androstenedione ([3]; supplementation): 10 fold

Structure (SMILES): C[C@]12CC[C@H]3[C@@H](CCC4=CC(=O)CC[C@@H]43)[C@@H]1CCC2=O [19-nor-androstenedione]
- excretion products ([3]; in vivo): excreted mainly as nor-androsterone and nor-etiocholanolone

Structure (SMILES): C[C@]12CC[C@H]3[C@@H](CCC4=CC(=O)CC[C@@]43C)[C@@H]1CC[C@@H]2O [Testosterone]
- lipid deposition or heat production [2]: did not have a significant effect
- proportion of protein in the body composition [2]: increased the proportion of protein

Structure (SMILES): CCCCCCC(=O)O[C@H]1CC[C@H]2[C@@H]3CCC4=CC(=O)CC[C@]4(C)[C@H]3CC[C@]12C [TE, testosterone enanthate]
- waking erection [4]: increased waking erection
- sexual interest and activity, spontaneous erection [4]: significant increases
- body circumferences [5]: significant increases

Structure (SMILES): C[C@]12CC[C@H]3[C@@H](CCC4=CC(=O)CC[C@@H]43)[C@@H]1CC[C@@H]2O [nandrolone, 19-nor-testosterone]
- effect on sperm [6]: azoospermia
- energy expenditure [2]: increased energy expenditure
- lean body mass [7]: increased significantly
- decrease in HDL-cholesterol [8]: 25-27%

Structure (SMILES): COc1ccc(-c2coc3cc(O)cc(O)c3c2=O)cc1 [Biochanin A, 5,7-dihydroxy-4′-methoxyisoflavone]
- aromatase inhibition (aromatase): inhibited aromatase, but to a lesser degree

Structure (SMILES): CCCCCCCCCC(=O)O[C@H]1CC[C@H]2[C@@H]3CCC4=CC(=O)CC[C@@H]4[C@H]3CC[C@]12C [nandrolone decanoate]
- body circumferences [5]: significant increases
- total weight, lean body mass, body cell mass, muscle size, and strength [9]: significant gains

Structure (SMILES): C[C@@H]1CC2=CC(=O)CC[C@@H]2[C@H]2CC[C@]3(C)[C@@H](O)CC[C@H]3[C@@H]21 [MENT, 7α-methyl-19-nor-testosterone]
- anabolic potency relative to testosterone [10]: ten-times
- waking erection [4]: increased waking erection
- sexual interest and activity, spontaneous erection [4]: significant increases
- androgenic potency relative to testosterone [11]: four- to five-times
